Experiment: excess molar enthalpy (molar enthalpy of mixing); xn = mol fraction of the nth substance listed
Conditions: 101 kPa, Liquid, Flow calorimetry

CCOC(C)(C)C [2-ethoxy-2-methylpropane] + Cc1ccccc1
excess molar enthalpy [kJ/mol]
Conditions	298.15 K	313.15 K
x1 = 0.0248	-0.0039	–
x1 = 0.0491	-0.0073	–
x1 = 0.0499	–	-0.00332
x1 = 0.0739	-0.0109	–
x1 = 0.0997	–	-0.00541
x1 = 0.1003	-0.0149	–
x1 = 0.1498	-0.0212	–
x1 = 0.151	–	-0.00928
x1 = 0.1991	-0.0275	–
x1 = 0.2004	–	-0.0125
x1 = 0.2489	-0.0324	–
x1 = 0.2511	–	-0.0169
x1 = 0.2993	-0.0371	–
x1 = 0.2998	–	-0.02
x1 = 0.3499	–	-0.0216
x1 = 0.3513	-0.0405	–
x1 = 0.3987	-0.0433	–
x1 = 0.4011	–	-0.0247
x1 = 0.4495	-0.045	–
x1 = 0.45	–	-0.0254
x1 = 0.5003	–	-0.0272
x1 = 0.5019	-0.046	–
x1 = 0.5499	–	-0.0265
x1 = 0.5515	-0.0457	–
x1 = 0.599	-0.0452	–
x1 = 0.6007	–	-0.025
x1 = 0.6491	-0.0425	–
x1 = 0.6506	–	-0.0245
x1 = 0.6996	–	-0.0229
x1 = 0.7014	-0.0396	–
x1 = 0.7495	-0.0348	–
x1 = 0.7498	–	-0.0206
x1 = 0.801	-0.0293	–
x1 = 0.8013	–	-0.0172
x1 = 0.8492	–	-0.0143
x1 = 0.8514	-0.0222	–
x1 = 0.9006	-0.0151	–
x1 = 0.9008	–	-0.01
x1 = 0.951	-0.0072	–
x1 = 0.9511	–	-0.00601
x1 = 1	0	0

COC(C)(C)C [2-methoxy-2-methylpropane] + CCCCCC
298.15 K
Conditions	excess molar enthalpy [kJ/mol]
x1 = 0.0504	0.0718
x1 = 0.1002	0.133
x1 = 0.1497	0.188
x1 = 0.2008	0.237
x1 = 0.2491	0.275
x1 = 0.2994	0.309
x1 = 0.3486	0.337
x1 = 0.4002	0.358
x1 = 0.4484	0.369
x1 = 0.4997	0.374
x1 = 0.5493	0.37
x1 = 0.6006	0.359
x1 = 0.6496	0.341
x1 = 0.7001	0.313
x1 = 0.75	0.281
x1 = 0.7992	0.238
x1 = 0.8501	0.189
x1 = 0.9007	0.132
x1 = 0.9506	0.0706
x1 = 1	0

COC(C)(C)C [2-methoxy-2-methylpropane] + CCCO
298.15 K
Conditions	excess molar enthalpy [kJ/mol]
x1 = 0.0491	0.0621
x1 = 0.0997	0.131
x1 = 0.1503	0.201
x1 = 0.1976	0.264
x1 = 0.2472	0.327
x1 = 0.2965	0.383
x1 = 0.3477	0.437
x1 = 0.4008	0.486
x1 = 0.4468	0.52
x1 = 0.4982	0.548
x1 = 0.5486	0.568
x1 = 0.5974	0.576
x1 = 0.6485	0.571
x1 = 0.6977	0.556
x1 = 0.7491	0.525
x1 = 0.7985	0.475
x1 = 0.8494	0.403
x1 = 0.8986	0.308
x1 = 0.9498	0.173
x1 = 1	0

CCCCCCC [heptane] + Cc1ccccc1
x1 = 1
Conditions	excess molar enthalpy [kJ/mol]
298.15 K	0
313.15 K	0

Cc1ccccc1 [toluene] + CCOC(C)(C)C
x2 = 0
Conditions	excess molar enthalpy [kJ/mol]
298.15 K	0
313.15 K	0

Cc1ccccc1 [toluene] + C1CCCCC1
x2 = 0
Conditions	excess molar enthalpy [kJ/mol]
298.15 K	0
313.15 K	0

CCCCCCC [heptane] + CCOC(C)(C)C
x2 = 0
Conditions	excess molar enthalpy [kJ/mol]
298.15 K	0
313.15 K	0

C1CCCCC1 [cyclohexane] + Cc1ccccc1
excess molar enthalpy [kJ/mol]
Conditions	298.15 K	313.15 K
x1 = 0.0491	–	0.104
x1 = 0.0492	0.11	–
x1 = 0.1003	–	0.202
x1 = 0.1004	0.213	–
x1 = 0.1496	–	0.287
x1 = 0.1497	0.304	–
x1 = 0.199	–	0.36
x1 = 0.1991	0.381	–
x1 = 0.2485	–	0.424
x1 = 0.2486	0.45	–
x1 = 0.298	–	0.48
x1 = 0.2981	0.507	–
x1 = 0.3477	–	0.524
x1 = 0.3479	0.551	–
x1 = 0.3974	–	0.559
x1 = 0.3976	0.589	–
x1 = 0.4493	0.614	0.583
x1 = 0.4992	0.624	0.594
x1 = 0.5493	0.625	0.593
x1 = 0.5974	–	0.583
x1 = 0.5975	0.614	–
x1 = 0.6476	–	0.559
x1 = 0.6478	0.589	–
x1 = 0.6979	–	0.522
x1 = 0.6981	0.55	–
x1 = 0.7483	–	0.472
x1 = 0.7485	0.495	–
x1 = 0.7989	–	0.409
x1 = 0.799	0.429	–
x1 = 0.8496	0.347	0.33
x1 = 0.9003	0.245	0.235
x1 = 0.9491	0.133	0.127
x1 = 1	0	0

CCCCCC [hexane] + COC(C)(C)C
Conditions	excess molar enthalpy [kJ/mol]
298.15 K, x2 = 0	0

C1CCCCC1 [cyclohexane] + CCCCCC
298.15 K
Conditions	excess molar enthalpy [kJ/mol]
x1 = 0.074	0.0485
x1 = 0.1463	0.0909
x1 = 0.219	0.126
x1 = 0.2876	0.158
x1 = 0.3542	0.183
x1 = 0.4193	0.202
x1 = 0.4832	0.214
x1 = 0.5476	0.219
x1 = 0.6085	0.22
x1 = 0.6675	0.213
x1 = 0.7255	0.199
x1 = 0.7839	0.178
x1 = 0.8395	0.148
x1 = 0.8935	0.109
x1 = 0.9482	0.0585
x1 = 1	0

CCCO [propan-1-ol] + COC(C)(C)C
Conditions	excess molar enthalpy [kJ/mol]
298.15 K, x2 = 0	0

Source: the NIST ThermoML archive (doi:10.1016/j.jct.2008.12.004)
